Our source for the IC50 and melting point values is patent US7429592B2, “Cyanoanthranilamide derivatives and the use thereof as medicaments” (Schering Aktienegesellschaft, priority 2001, dated 2008).

For one series, the target named is T1, Cytochrome P450 1A2 (Homo sapiens, UniProt P05177).
T1 construct: host or cells: baculovirus/insect cells
T1 sequence (P05177 1-516): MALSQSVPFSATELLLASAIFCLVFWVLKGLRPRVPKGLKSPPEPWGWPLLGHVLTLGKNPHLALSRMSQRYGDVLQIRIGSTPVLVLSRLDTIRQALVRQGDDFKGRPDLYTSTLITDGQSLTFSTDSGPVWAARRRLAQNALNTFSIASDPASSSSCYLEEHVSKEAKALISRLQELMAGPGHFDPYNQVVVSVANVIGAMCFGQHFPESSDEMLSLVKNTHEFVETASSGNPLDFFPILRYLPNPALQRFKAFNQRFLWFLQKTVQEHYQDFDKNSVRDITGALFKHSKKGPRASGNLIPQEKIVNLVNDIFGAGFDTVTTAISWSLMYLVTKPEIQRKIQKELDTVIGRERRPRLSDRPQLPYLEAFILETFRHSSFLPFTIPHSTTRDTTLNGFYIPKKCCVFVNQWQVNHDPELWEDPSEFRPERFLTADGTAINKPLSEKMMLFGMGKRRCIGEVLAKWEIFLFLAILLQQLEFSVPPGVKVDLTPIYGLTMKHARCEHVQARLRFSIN
As to the kind of experiment: Cytochrome P450 inhibition (Crespi et al.). The format is in vitro ADME. Particulars: baculovirus/insect cell-expressed human isoenzyme 1A2; read-out: Inhibition of the Cytochrome P450 Isoenzymes IC50, 1A2. How it is done:
(§1) The Cytochrome P450 inhibition was performed according to the publication of Crespi et al. (Anal. Biochem., 248, 188-190 (1997)) with use of baculovirus/insect cell-expressed, human Cytochrome P 450 isoenzymes (1A2, 2C9, 2C19, 2D6, 3A4).

In another series the target is T2, Cytochrome P450 2C19 (Homo sapiens, UniProt P33261).
T2 construct: host or cells: baculovirus/insect cells
T2 sequence (P33261 whole entry): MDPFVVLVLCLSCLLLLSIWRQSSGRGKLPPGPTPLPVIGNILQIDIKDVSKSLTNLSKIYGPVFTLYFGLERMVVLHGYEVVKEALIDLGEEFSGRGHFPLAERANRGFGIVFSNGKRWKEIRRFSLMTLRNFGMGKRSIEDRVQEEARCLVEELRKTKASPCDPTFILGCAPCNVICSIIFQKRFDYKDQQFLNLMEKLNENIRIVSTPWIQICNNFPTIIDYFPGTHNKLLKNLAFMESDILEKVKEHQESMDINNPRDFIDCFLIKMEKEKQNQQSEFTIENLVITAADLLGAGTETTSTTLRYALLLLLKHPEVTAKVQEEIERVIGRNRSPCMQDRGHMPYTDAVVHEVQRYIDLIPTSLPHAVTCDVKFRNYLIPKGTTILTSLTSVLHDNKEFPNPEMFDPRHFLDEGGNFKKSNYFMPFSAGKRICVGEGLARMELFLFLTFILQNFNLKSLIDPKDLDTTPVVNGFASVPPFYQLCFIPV
As to the kind of experiment: Cytochrome P450 inhibition (Crespi et al.). The series is classed as in vitro ADME. Particulars: baculovirus/insect cell-expressed human isoenzyme 2C19; read-out: Inhibition of the Cytochrome P450 Isoenzymes IC50, 2C19. How it is done:
as §1

For a further series, the target named is T3, Cytochrome P450 3A4 (Homo sapiens, UniProt P08684).
T3 construct: host or cells: baculovirus/insect cells
T3 sequence (P08684 whole entry): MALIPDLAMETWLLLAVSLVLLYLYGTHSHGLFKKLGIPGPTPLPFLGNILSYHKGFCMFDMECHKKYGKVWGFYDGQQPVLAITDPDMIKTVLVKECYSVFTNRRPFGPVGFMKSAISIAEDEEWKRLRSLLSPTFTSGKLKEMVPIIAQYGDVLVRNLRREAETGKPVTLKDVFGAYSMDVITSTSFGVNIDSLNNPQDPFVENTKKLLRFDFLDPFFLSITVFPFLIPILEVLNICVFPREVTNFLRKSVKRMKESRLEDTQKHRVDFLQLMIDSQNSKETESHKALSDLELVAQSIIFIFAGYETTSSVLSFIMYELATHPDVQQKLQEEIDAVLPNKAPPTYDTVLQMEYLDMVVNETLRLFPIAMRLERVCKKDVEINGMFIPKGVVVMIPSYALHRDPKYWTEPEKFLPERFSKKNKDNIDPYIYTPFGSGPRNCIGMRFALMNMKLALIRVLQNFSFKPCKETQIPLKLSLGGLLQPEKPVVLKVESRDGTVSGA
In words: Cytochrome P450 inhibition (Crespi et al.). The settings on record: baculovirus/insect cell-expressed human isoenzyme 3A4; read-out: Inhibition of the Cytochrome P450 Isoenzymes IC50, 3A4. The series is classed as in vitro ADME. As for the experimental part:
as §1

The next series deals with T4, Cytochrome P450 2D6 (Homo sapiens, UniProt P10635).
T4 construct: host or cells: baculovirus/insect cells
T4 sequence (P10635 whole entry): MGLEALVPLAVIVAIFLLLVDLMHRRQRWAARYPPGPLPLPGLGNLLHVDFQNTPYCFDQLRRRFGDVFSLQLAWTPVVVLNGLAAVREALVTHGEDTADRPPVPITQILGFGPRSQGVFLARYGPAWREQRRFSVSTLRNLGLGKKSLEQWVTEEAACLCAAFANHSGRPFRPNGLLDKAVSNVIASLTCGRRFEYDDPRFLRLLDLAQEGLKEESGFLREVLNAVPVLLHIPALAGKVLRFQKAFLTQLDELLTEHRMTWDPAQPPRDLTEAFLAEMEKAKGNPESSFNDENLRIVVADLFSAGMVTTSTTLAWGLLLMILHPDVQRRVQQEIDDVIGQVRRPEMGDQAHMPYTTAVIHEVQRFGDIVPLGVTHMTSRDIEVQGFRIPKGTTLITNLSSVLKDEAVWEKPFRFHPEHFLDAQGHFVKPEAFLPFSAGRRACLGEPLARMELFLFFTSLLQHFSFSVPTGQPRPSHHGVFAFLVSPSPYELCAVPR
In words: Cytochrome P450 inhibition (Crespi et al.). The format is in vitro ADME. Particulars: baculovirus/insect cell-expressed human isoenzyme 2D6; read-out: Inhibition of the Cytochrome P450 Isoenzymes IC50, 2D6. As for the experimental part: as §1

For another series, the target named is T5, Cytochrome P450 2C9 (Homo sapiens, UniProt P11712).
T5 construct: host or cells: baculovirus/insect cells
T5 sequence (P11712 whole entry): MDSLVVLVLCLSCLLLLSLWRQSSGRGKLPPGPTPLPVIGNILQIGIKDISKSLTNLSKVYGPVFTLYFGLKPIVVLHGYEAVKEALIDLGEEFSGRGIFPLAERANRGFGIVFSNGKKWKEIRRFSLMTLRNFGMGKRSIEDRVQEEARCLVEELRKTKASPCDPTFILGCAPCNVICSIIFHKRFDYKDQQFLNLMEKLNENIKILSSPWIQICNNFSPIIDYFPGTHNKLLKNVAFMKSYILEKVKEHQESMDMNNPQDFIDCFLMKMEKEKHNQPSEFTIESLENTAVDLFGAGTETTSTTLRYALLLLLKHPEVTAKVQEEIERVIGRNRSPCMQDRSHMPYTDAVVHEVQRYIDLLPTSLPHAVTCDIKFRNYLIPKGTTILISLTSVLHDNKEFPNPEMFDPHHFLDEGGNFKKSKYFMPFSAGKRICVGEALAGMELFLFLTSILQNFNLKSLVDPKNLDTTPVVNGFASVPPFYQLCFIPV
As to the kind of experiment: Cytochrome P450 inhibition (Crespi et al.). The series is classed as in vitro ADME. Particulars: baculovirus/insect cell-expressed human isoenzyme 2C9; read-out: Inhibition of the Cytochrome P450 Isoenzymes IC50, 2C9. How it is done: as §1

A further series concerns the target VEGFR II (KDR) (Homo sapiens, UniProt P35968). As to the kind of experiment: Inhibition of the KDR kinase activity (33P-ATP, poly-(Glu4Tyr) substrate, phosphocellulose filter). The series is classed as biochemical. The settings on record: 10 minutes at room temperature; phosphate incorporation. How it is done: • Stock solution A: 3 mmol of ATP in water, pH 7.0 (−70° C.) • Stock solution B: g-33P-ATP 1 mCi/100 μl • Stock solution C: poly-(Glu4 Tyr) 10 mg/ml in water Solution for Dilutions • Substrate solvent: 10 mmol of DTT, 10 mmol of manganese chloride, 100 mmol of magnesium chloride • Enzyme solution: 120 mmol of tris/HCl, pH 7.5, […] of sodium vanadium oxide
Inhibition of the KDR- and FLT-1 Kinase Activity in the Presence of the Compounds According to the Invention
In a microtiter plate (without protein binding) that tapers to a point, 10 μl of substrate mix (10 μl of volume of ATP stock solution A+25 μCi of g-33P-ATP (about 2.5 μl of stock solution B)+30 μl of poly-(Glu4Tyr) stock solution C+1.21 ml of substrate solvent), 10 μl of inhibitor solution (substances corresponding to the dilutions, 3% DMSO in substrate solvent as a control) and 10 μl of enzyme solution (11.25 μg of enzyme stock solution (KDR or FLT-1 kinase) are added at 4° C. in 1.25 ml of enzyme solution (dilute). It is thoroughly mixed and incubated for 10 minutes at room temperature. Then, 10 μl of stop solution ([…] of EDTA, pH 7.0) is added, mixed, and 10 μl of the solution is transferred to a P 81 phosphocellulose filter. Then, it is washed several times in 0.1 M phosphoric acid. The filter paper is dried, coated with Meltilex and measured in a microbeta counter.
The IC50 values are determined from the inhibitor concentration, which is necessary to inhibit the phosphate incorporation to 50% of the uninhibited incorporation after removal of the blank reading (EDTA-stopped reaction).

VEGFR II (KDR), sequence (P35968 20-1356, species assumed): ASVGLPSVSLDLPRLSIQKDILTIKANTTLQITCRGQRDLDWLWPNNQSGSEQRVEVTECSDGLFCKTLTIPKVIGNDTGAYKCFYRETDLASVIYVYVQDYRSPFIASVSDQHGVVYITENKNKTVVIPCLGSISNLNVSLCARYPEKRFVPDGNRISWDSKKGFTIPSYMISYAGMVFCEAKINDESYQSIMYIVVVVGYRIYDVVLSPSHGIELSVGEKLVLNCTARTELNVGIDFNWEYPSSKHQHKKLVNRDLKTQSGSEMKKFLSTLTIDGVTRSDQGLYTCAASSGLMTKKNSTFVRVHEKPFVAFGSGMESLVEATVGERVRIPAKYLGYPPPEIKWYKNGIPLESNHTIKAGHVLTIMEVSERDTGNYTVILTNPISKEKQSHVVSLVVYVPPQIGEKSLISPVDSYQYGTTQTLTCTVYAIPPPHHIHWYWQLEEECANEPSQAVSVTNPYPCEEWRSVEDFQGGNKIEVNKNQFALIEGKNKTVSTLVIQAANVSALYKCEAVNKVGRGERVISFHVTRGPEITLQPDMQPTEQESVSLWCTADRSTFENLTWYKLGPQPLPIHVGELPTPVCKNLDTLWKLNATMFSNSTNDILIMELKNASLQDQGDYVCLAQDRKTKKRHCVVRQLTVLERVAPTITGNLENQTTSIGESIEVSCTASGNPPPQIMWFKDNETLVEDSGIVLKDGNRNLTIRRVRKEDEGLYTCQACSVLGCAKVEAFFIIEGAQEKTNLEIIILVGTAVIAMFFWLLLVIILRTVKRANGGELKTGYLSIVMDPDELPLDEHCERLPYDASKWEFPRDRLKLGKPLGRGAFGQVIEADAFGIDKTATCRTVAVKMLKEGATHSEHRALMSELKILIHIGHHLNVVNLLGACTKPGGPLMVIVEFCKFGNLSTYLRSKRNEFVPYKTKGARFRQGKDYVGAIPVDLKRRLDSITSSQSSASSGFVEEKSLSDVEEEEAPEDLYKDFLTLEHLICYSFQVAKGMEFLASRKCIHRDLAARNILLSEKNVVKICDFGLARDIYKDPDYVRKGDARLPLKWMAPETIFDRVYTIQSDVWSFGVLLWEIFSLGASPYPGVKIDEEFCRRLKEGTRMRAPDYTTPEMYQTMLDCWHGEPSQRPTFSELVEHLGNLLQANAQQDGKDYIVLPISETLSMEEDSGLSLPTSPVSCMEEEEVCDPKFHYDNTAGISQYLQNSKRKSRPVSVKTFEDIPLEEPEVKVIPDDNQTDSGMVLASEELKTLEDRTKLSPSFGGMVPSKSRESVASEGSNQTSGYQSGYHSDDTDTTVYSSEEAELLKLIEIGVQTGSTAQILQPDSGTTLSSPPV

Turning to `N#Cc1cc(CNc2ccccc2C(=O)Nc2cc3ccccc3cn2)ccn1` [Example 1], the half-maximal inhibitory concentration (IC50) (as a rule, the concentration needed to halve the response being measured) on Cytochrome P450 1A2 is greater than 30000 nM; on Cytochrome P450 2C19, 1800 nM; on Cytochrome P450 3A4, greater than 30000 nM; at Cytochrome P450 2D6, greater than 30000 nM; at Cytochrome P450 2C9, 1200 nM; against VEGFR II (KDR), 10 nM.
Take `N#Cc1ccc(CNc2ccccc2C(=O)Nc2cc3ccccc3cn2)cn1` [Example 2]: the melting point (as a rule, the temperature of the solid-liquid transition) turned out to be 173.8 °C. The midpoint of inhibition at VEGFR II (KDR), the IC50, lay at 50 nM.
On to `N#Cc1ncccc1CNc1ccccc1C(=O)Nc1cc2ccccc2cn1` [Example 3], for which the melting point was 233.4 °C (dec.). For the same molecule, the IC50 on VEGFR II (KDR) amounted to 50 nM.
With `N#Cc1ccc(CNc2ccccc2C(=O)Nc2ccc3c(c2)CC(=O)N3)cn1` [Example 4], at VEGFR II (KDR), it took 300 nM to reach half-maximal inhibition (IC50).
As for `N#CCn1ncc2ccc(NC(=O)c3ccccc3NCc3ccnc(C#N)c3)cc21` [Example 5], on VEGFR II (KDR), inhibition was half-maximal at 300 nM (IC50).
Molecule `COc1ccc2cc(NC(=O)c3ccccc3NCc3ccc(C#N)nc3)c(=O)oc2c1` [Example 6] displayed a melting point of 173.4 °C. Besides, on VEGFR II (KDR), the IC50 amounted to 300 nM.
For `Cn1ncc2ccc(NC(=O)c3ccccc3NCc3ccnc(C#N)c3)cc21` [Example 10], the melting point is 155 to 158 °C. For the same molecule, the IC50 against VEGFR II (KDR) turned out to be 200 nM.
For the molecule `COc1ccc2cc(NC(=O)c3ccccc3NCc3ccnc(C#N)c3)c(=O)oc2c1` [Example 11], the melting point is 165 to 167 °C. Moreover, on VEGFR II (KDR), the IC50 worked out at 200 nM.
Molecule `COc1ccc2cc(C)c(NC(=O)c3ccccc3NCc3ccnc(C#N)c3)nc2c1` [Example 12] came in with a melting point of 153 to 155 °C. For the same molecule, at VEGFR II (KDR), half-maximal inhibition (IC50) was put at 700 nM.
In the case of `N#Cc1cc(CNc2ccccc2C(=O)Nc2ccc3c(c2)NC(=O)C3)ccn1` [Example 13], the IC50 against VEGFR II (KDR) came to 200 nM.
In the case of `Cn1cc2ccc(NC(=O)c3ccccc3NCc3ccnc(C#N)c3)cc2n1` [Example 15], 200 nM corresponded to half-maximal inhibition on VEGFR II (KDR) (IC50).
The same measure, in the same setting: for `N#Cc1cc(CNc2ccccc2C(=O)Nc2ccc3cn[nH]c3c2)ccn1` [Example 16] the value was 100 nM.
